Patent US20130053406A1, “THERAPEUTIC COMPOUNDS AND USES THEREOF” (Myrexis, Inc., priority 2009, published 2013)

How the values were obtained:
purified human Hsp90 = assay: Hsp90 binding assay (fluorescence polarization, displacement of BODIPY-geldanamycin); details: displacement of BODIPY-GM (10 nM) from purified human Hsp90 (30 nM), overnight at room temperature
Description: Plates are incubated overnight at room temperature. Parallel and perpendicular fluorescence measurements are read (LJL BioSystems Analyst AD plate reader) at excitation/emission wavelengths of 485/530 nm. Background fluorescence (buffer only) is subtracted, and fluorescence polarization (FP) values, expressed in mP units, are calculated from parallel and perpendicular fluorescence readings as follows:
Percent inhibition is calculated by normalizing the FP values to those obtained in parallel reactions containing DMSO and subtracting these normalized values from 100%. Intrinsic compound fluorescence is independently monitored, and FP data points confounded by compound fluorescence are excluded from the analysis.

HCT116 cells = assay: Cytotoxicity assay (ATPLite, 72 hours); assay type: cell-based; details: Homo sapiens, HCT-116, ATPLite luminescence
Description: HCT116 cells are seeded into black 96-well plates at 5,000 cells per well in 100 microliters (DMEM supplemented with 10% serum) and are incubated overnight. […] Plates are equilibrated to room temperature (5 min). Fifty microliters lysis buffer followed by 50 microliters substrate solution (ATPLite [2 step], Perkin-Elmer, #601941) is added to each well, and plates are incubated at room temperature 5 minutes. Luminescence is then measured (TopCount, Perkin-Elmer).

Row | IC50 (purified human Hsp90) [nM] | SMILES | IC50 (HCT116 cells) [nM]
1 | 250 | [2H]C1([2H])Oc2cc(Br)c(Sc3nc4c(N)ncnc4n3CCC3CCN(C(=O)[C@H](C)O)CC3)cc2O1 [(2S)-1-[4-(2-{6-amino-8-[(6-bromo-2,2-d2-benzo[d][1,3]dioxol-5-yl)sulfanyl]-9H-purin-9-yl}ethyl)piperidin-1-yl]-2-hydroxypropan-1-one] | 1200
2 | 78 | [2H]C1([2H])Oc2cc(Br)c(Sc3nc4c(N)ncnc4n3CCC3CCN(C(=O)[C@H](C)OC(C)=O)CC3)cc2O1 [(2S)-1-[4-(2-{6-amino-8-[(6-bromo-2,2-d2-benzo[d][1,3]dioxol-5-yl)sulfanyl]-9H-purin-9-yl}ethyl)piperidin-1-yl]-1-oxopropan-2-yl acetate] | 730
